The values below come from patent US11591313B2, “Inhibitors of ectonucleotide pyrophosphatase/phosphodiesterase 1 (ENPP1) and methods of use thereof” (Stingray Therapeutics, Inc., priority 2020, dated 2023).

By IC50 is commonly meant the point on the concentration scale where inhibition reaches its midpoint.

Counter-ions that a name gives are not always drawn. Like-named read-outs stand apart in the source and are kept apart here.

In assay [1] the target is T1, Recombinant Human ENPP-1 Protein (Homo sapiens (Human), UniProt P22413). It counts as binding. Particulars: SYPRO Orange protein melt.
Protocol: Recombinant Human ENPP-1 Protein (Purified In-House)
Assay Buffer (1 mM CaCl2, 0.2 mM ZnCl2, 50 mM Tris, pH 9.0)
5000×SYPRO Orange (ThermoFisher cat #S6651)
Each drug was prepared as a 1 Ox solution in the assay buffer and SYPRO Orange was diluted to 10× concentration in water. Wells were set up in duplicate in a 384-well PCR plate as follows: 14 μL assay buffer, 2 μL ENPP1 Inhibitor or DMSO, 2 μL (0.5 μg) ENPP1 protein. Each well was mixed and incubated on ice for 5 minutes. Post incubation, 2 μL of SYPRO Orange was mixed into each well and followed by a gentle centrifugation. The protein melt reaction was run using ViiA7 software with temperatures beginning at 25° C. and increasing by 0.05° C./s to the maximum temperature of 99° C.
Assay [2] has as its target Recombinant Human ENPP-2/Autotaxin (rhENPP-2) (Homo sapiens (Human), UniProt Q13822). The assay can be described thus: ENPP2 Assay. The assay is classed as biochemical. Particulars: substrate BPNPP, pH 8.5, 37° C. 10 minutes, absorbance at 400 nm. Here is the method: Assay Buffer: 50 mM Tris, 10 mM CaCl2, 5 mM MgCl2, 0.02% Brij-35 (v/v), pH 8.5
Substrate: 20 mM Bis(p-Nitrophenyl) Phosphate Sodium Salt (BPNPP) (Sigma, Catalog #N3002)
Enzyme: 0.01 ng/μL Recombinant Human ENPP-2/Autotaxin (rhENPP-2) (R&D Catalog #5255-EN)
96-well clear assay plates
0 μM. […] PF8380 was used as a positive control for the assay. Data was analyzed using GraphPad Prism 8.0.

In assay [3] the target is T1, Recombinant Human ENPP-1 Protein. In words: ENPP1 Assay (TMP). The assay is classed as biochemical.
Protocol: Assay Buffer: 1 mM CaCl2, 0.2 mM ZnCl2, 50 mM Tris, pH 9.0
Enzyme: 1 ng/μL Recombinant Human ENPP-1 Protein (purified in-house)—Assay Cone.: 5 ng/well
A ten point serial dilution of drugs was prepared in 10× in assay buffer with the final assay concentrations starting at 10 μM, 3 μM, 1 μM, 0.3 μM . . . 0 μM. A dilution of DMSO was included as a control. The assay plate was set up as follows with each well in duplicate: 75 μL assay buffer+10 μL ENPP1 inhibitor or DMSO Dilutions+10 μL Substrate+5 μL Enzyme (5 ng). Both the enzyme and substrate were added to opposite sides of the well to ensure that there was no interaction until all wells had both components. The plate was then centrifuged gently for 10 seconds, followed by an incubation at 37° C. for 45 minutes. […] Data was analyzed using GraphPad Prism 8.0.

T1 sequence (P22413 whole entry, looked up): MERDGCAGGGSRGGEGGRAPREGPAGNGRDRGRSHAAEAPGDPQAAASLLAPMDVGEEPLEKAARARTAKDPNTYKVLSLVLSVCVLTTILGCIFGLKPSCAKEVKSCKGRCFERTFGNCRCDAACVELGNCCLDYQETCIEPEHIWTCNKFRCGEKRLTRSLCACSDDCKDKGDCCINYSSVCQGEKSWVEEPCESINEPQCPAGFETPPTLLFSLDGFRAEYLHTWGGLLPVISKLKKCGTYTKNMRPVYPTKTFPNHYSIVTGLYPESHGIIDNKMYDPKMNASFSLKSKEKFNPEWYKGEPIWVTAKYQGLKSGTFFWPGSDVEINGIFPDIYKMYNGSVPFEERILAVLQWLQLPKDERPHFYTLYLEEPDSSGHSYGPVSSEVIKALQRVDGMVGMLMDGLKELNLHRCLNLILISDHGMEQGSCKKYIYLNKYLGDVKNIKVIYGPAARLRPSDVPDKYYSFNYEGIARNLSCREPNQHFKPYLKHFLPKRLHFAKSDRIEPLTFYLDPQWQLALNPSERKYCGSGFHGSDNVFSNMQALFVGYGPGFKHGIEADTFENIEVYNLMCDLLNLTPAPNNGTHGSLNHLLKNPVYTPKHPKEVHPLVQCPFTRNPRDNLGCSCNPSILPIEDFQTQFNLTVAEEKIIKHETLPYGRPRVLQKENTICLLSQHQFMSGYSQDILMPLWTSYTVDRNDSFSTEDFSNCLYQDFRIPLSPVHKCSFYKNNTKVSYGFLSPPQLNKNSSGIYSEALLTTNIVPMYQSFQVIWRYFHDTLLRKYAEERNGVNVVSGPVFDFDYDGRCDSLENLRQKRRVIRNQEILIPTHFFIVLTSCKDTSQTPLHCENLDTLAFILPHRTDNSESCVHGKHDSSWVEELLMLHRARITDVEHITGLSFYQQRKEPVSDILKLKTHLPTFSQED

As to `COc1cc2ncnc(OCCCCNS(N)(=O)=O)c2cc1OC` [Compound 053], the “Thermal Shift @10 uM (dTm (o C.))” value in assay [1] was “$$$ ($$$ >3o C.)”. The same measure, in the same setting: under `COc1cc2ncnc(N3CCCN(CCNS(N)(=O)=O)CC3)c2cc1OC.Cl` [Compound 063] stands “$$ ($$ <3o C.)”.

Consider `COc1cc2ncnc(NCCCNS(N)(=O)=O)c2cc1OC` [Compound 055, N-(3-((6,7-dimethoxyquinazolin-4-yl)amino)propyl) sulfamide hydrochloride], for which the “Thermal Shift @10 uM (dTm (o C.))” value in assay [1] is “$$ ($$ <3o C.)”. As for `COc1cc2ncnc(-c3ccc(NCCNS(N)(=O)=O)nc3)c2cc1OC.Cl` [Compound 048], in assay [1], the “Thermal Shift @10 uM (dTm (o C.))” value is “$$ ($$ <3o C.)”. Besides, the IC50 in assay [2] was over 1000 nM. As to `COc1cc2ncnc(N(C)CCCCCNS(N)(=O)=O)c2cc1OC` [Compound 061, N-(5-((6,7-dimethoxyquinazolin-4-yl) (methyl)amino)pentyl) sulfamide], in assay [1], the “Thermal Shift @10 uM (dTm (o C.))” value was “$$ ($$ <3o C.)”.

On to `COc1cc2ncnc(N3CCCN(C(=O)CNS(N)(=O)=O)CC3)c2cc1OC.Cl` [Compound 064, (N-(2-(4-(6,7-dimethoxyquinazolin-4-yl)-1,4-diazepan-1-yl)-2-oxoethyl)sulfamide hydrochloride], for which the IC50 in assay [3] came to 72 nM. `COc1cc2ncnc(N3CC4CC(C3)N(S(N)(=O)=O)C4)c2cc1OC` (stereo not shown) [Compound 026, 3-(6,7-dimethoxyquinazolin-4-yl)-3,6-diazabicyclo[3.2.1]octane-6-sulfonamide hydrochloride]: the IC50 in assay [3] (read-out: IC50) was 118 nM.

As for `COc1cc2ncnc(N3CCCN(CCNS(N)(=O)=O)CC3)c2cc1OC.Cl` [Compound 063, (N-(2-(4-(6,7-dimethoxyquinazolin-4-yl)-1,4-diazepan-1-yl)ethyl)sulfamide hydrochloride], the half-maximal inhibitory concentration (IC50) in assay [3] (read-out: IC50) worked out at 68.1 nM. As for `COc1cc2ncnc(N3CCCN(S(N)(=O)=O)CC3)c2cc1OC` [Compound 015-MES, 4-(6,7-dimethoxyquinazolin-4-yl)-1,4-diazepane-1-sulfonamide methanesulfonate], in assay [3] (methanesulfonate, read-out: IC50), the IC50 is 6.38 nM. Regarding `COc1cc2ncnc(-c3ccc(CNS(N)(=O)=O)nc3)c2cc1OC` [Compound 047, N-((5-(6,7-dimethoxyquinazolin-4-yl)pyridin-2-yl)methyl) sulfamide], the “Thermal Shift @10 uM (dTm (o C.))” value in assay [1] is “$$ ($$ <3o C.)”. Besides, the IC50 in assay [2] was over 1000 nM.

Consider `COc1cc2ncnc(N3CCCN(S(N)(=O)=O)CC3)c2cc1OC.Cl` [Compound 015-HCl, 4-(6,7-dimethoxyquinazolin-4-yl)-1,4-diazepane-1-sulfonamide hydrochloride salt], for which the IC50 in assay [3] (hydrochloride salt, read-out: IC50) was 5.97 nM; in assay [2], over 1000 nM. Also, in assay [1], the “Thermal Shift @10 uM (dTm (o C.))” value was “$$$ ($$$ >3o C.)”. For the compound `COc1cc2ncnc(N3CCCN(CCNS(N)(=O)=O)CC3)c2cc1OC` [Compound 062], in assay [1], the “Thermal Shift @10 uM (dTm (o C.))” value is listed as “$$ ($$ <3o C.)”. Moreover, in assay [2], the IC50 is over 1000 nM. Regarding `COc1cc2c(N3CCCN(S(N)(=O)=O)CC3)ncnc2cc1-c1cn[nH]c1` [Compound 020, 4-(6-methoxy-7-(1H-pyrazol-4-yl)quinazolin-4-yl)-1,4-diazepane-1-sulfonamide], the IC50 in assay [3] (read-out: IC50) is 99.7 nM. On to `COc1cc2ncnc(SCCCCNS(N)(=O)=O)c2cc1OC` [Compound 058, N-(4-((6,7-dimethoxyquinazolin-4-yl)thio)butyl) sulfamide hydrochloride], for which, in assay [1], the “Thermal Shift @10 uM (dTm (o C.))” value is given as “$$$ ($$$ >3o C.)”. Regarding `COc1cc2ncc(C#N)c(N3CCCC(NS(N)(=O)=O)CC3)c2cc1OC` (stereo not shown) [Compound 042, N-(1-(3-cyano-6,7-dimethoxyquinolin-4-yl)azepan-4-yl)sulfamoylamine], in assay [3] (read-out: IC50), the IC50 amounted to 40.5 nM. As to `COc1cc2ncnc(N3CCCC(CCNS(N)(=O)=O)CC3)c2cc1OC` (stereo not shown) [Compound 049], in assay [1], the “Thermal Shift @10 uM (dTm (o C.))” value is “$$$ ($$$ >3o C.)”. Further, the IC50 in assay [2] was over 1000 nM. For the compound `COc1ccc2ncnc(N3CCCN(S(N)(=O)=O)CC3)c2c1` [Compound 022, 4-(6-methoxyquinazolin-4-yl)-1,4-diazepane-1-sulfonamide], in assay [3] (read-out: IC50), the IC50 worked out at 116 nM.

For the compound `COc1cc2ncnc(OCCCCCNS(N)(=O)=O)c2cc1OC` [Compound 054], the “Thermal Shift @10 uM (dTm (o C.))” value in assay [1] was “$$ ($$ <3o C.)”. On to `COc1cc2ncnc(N3CCCN(C(=O)CNS(N)(=O)=O)CC3)c2cc1OC` [Compound 065], for which the IC50 in assay [3] (read-out: IC50) was 7.74 nM; in assay [2] it was over 1000 nM. The “Thermal Shift @10 uM (dTm (o C.))” value in assay [1] is “$$$ ($$$ >3o C.)”. Regarding `COc1cc2ncnc(NCCCCNS(N)(=O)=O)c2cc1OC` [Compound 056], the “Thermal Shift @10 uM (dTm (o C.))” value in assay [1] is “$$ ($$ <3o C.)”. Further, the IC50 in assay [2] is over 1000 nM.

Turning to `COc1cc2ncnc(N3CCCN(C(=O)CNS(N)(=O)=O)CC3)c2cc1OC.Cl` [Compound 064], the “Thermal Shift @10 uM (dTm (o C.))” value in assay [1] is on record as “$$ ($$ <3o C.)”.

In the case of `COc1cc2ncnc(CCCCCNS(N)(=O)=O)c2cc1OC` [Compound 050], the “Thermal Shift @10 uM (dTm (o C.))” value in assay [1] was “$$ ($$ <3o C.)”. Also, the IC50 in assay [2] is over 1000 nM. Take `COc1cc2ncnc(N3CCCC(CCNS(N)(=O)=O)CC3)c2cc1OC` (stereo not shown) [Compound 060, N-(2-(1-(6,7-dimethoxyquinazolin-4-yl)azepan-4-yl)ethyl)sulfamide]: in assay [1], the “Thermal Shift @10 uM (dTm (o C.))” value is listed as “$$$ ($$$ >3o C.)”. Turning to `COc1cc2ncc(C#N)c(N3CCCC(CCNS(N)(=O)=O)CC3)c2cc1OC` (racemic) [Compound 038], the IC50 in assay [3] came to 0.94 nM. `COc1cc2ncnc(N3CCCN(S(N)(=O)=O)CC3)c2cc1OC` [Compound 015, 4-(6,7-dimethoxyquinazolin-4-yl)-1,4-diazepane-1-sulfonamide]: the IC50 in assay [3] (read-out: IC50) was 32.4 nM. Still for that read-out and setting: under `COc1cc2ncnc(N3CCN(S(N)(=O)=O)CC(F)(F)C3)c2cc1OC` [Compound 029, 4-(6,7-dimethoxyquinazolin-4-yl)-6,6-difluoro-1,4-diazepane-1-sulfonamide hydrochloride] stands 1.21 nM. As to `COc1cc2ncnc(NCCCCCNS(N)(=O)=O)c2cc1OC` [Compound 057], the “Thermal Shift @10 uM (dTm (o C.))” value in assay [1] was “$$ ($$ <3o C.)”.
